Results taken from paper PMC3549034 (Cancer research, 2012).

Target: Aurora B (Homo sapiens, UniProt Q96GD4)
Type: biochemical

Sequence of Aurora B (Q96GD4 whole entry): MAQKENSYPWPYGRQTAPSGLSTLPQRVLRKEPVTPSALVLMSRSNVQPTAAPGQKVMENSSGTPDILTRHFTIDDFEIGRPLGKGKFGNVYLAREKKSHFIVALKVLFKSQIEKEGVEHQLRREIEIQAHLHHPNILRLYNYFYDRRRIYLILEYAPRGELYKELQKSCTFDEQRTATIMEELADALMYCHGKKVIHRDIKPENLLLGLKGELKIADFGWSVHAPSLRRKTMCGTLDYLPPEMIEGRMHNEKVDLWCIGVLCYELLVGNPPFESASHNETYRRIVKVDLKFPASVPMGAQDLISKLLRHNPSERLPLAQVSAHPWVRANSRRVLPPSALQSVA

SMILES: O=C(/C=C/c1ccc2c(c1)OCO2)/C=C1/C(=O)Nc2ccccc21 [HOI-07, (E)-3-((E)-4-(benzo[d][1,3]dioxol-5-yl)-2-oxobut-3-en-1-ylidene)indolin-2-one]
- IC50: ~100 nM
